According to US8158792B2, “Spiropiperidines for use as tryptase inhibitors” (Janssen Pharmaceutica N.V., priority 2007, dated 2012):

What follows are compounds tested against human lung tryptase (assay: β-Tryptase In-Vitro Enzyme Assay). Settings: human lung tryptase 1 nM, substrate H-D-HHT-Ala-Arg-pNa 500 μM, pH 7.4, room temperature.
Assay type: biochemical
Procedure: The β-tryptase assay was conducted with human lung tryptase (Cortex Biochem #CP3033) in an aqueous buffer (10 mM Tris, 10 mM Hepes, 150 mM NaCl, 0.1% PEG 8000, pH 7.4) using the chromogenic substrate H-D-HHT-Ala-Arg-pNa. […] Percent inhibition was calculated by comparing the initial reaction velocity of samples without inhibitor to those with inhibitor. The initial reaction velocities were analyzed using Microsoft Excel.

NCc1ccc2c(c1)C1(CCN(C(=O)/C=C/c3cccnc3)CC1)CO2 [Cpd 253, (E)-1-(pyridin-3-ylethenyl)carbonyl-5′-aminomethyl-spiro[piperidine-4,3′-(2H)-benzo[b]furan]] and NCc1ccc2c(c1)C1(CCN(C(=O)/C=C/c3ccncc3)CC1)CO2 [Cpd 244, (E)-1-(pyridin-4-ylethenyl)carbonyl-5′-aminomethyl-spiro[piperidine-4,3′-(2H)-benzo[b]furan]] are within 1.5-fold of each other in IC50: 2.4 µM for the first, 2.5 µM for the second.

First: NCc1ccc2c(c1)C1(CCN(C(=O)c3cccc(C(F)(F)F)c3)CC1)CO2 [Cpd 47, 1-(3-trifluoromethyl-phenyl)carbonyl-5′-aminomethyl-spiro[piperidine-4,3′-(2H)-benzo[b]furan]]
Second: CC(C)(C)c1cccc(C(=O)N2CCC3(CC2)COc2ccc(CN)cc23)c1 [Cpd 274, 1-(3-tert-butyl-phenyl)carbonyl-5′-aminomethyl-spiro[piperidine-4,3′-(2H)-benzo[b]furan]]
The IC50 of the first is 7.8-fold lower: 0.82 µM for the first, 6.4 µM for the second.

First: CSc1cccc(C(=O)N2CCC3(CC2)COc2ccc(CN)cc23)c1 [Cpd 57, 1-(3-methylthio-phenyl)carbonyl-5′-aminomethyl-spiro[piperidine-4,3′-(2H)-benzo[b]furan]]
Second: Cc1cccc(C(=O)N2CCC3(CC2)COc2ccc(CN)cc23)c1 [Cpd 41, 1-(3-methyl-phenyl)carbonyl-5′-aminomethyl-spiro[piperidine-4,3′-(2H)-benzo[b]furan]]
The IC50 of the first is 2.6-fold lower: 0.18 µM for the first, 0.47 µM for the second.

Going from NCc1ccc2c(c1)C1(CCN(C(=O)CCc3ccccc3)CC1)CO2 [Cpd 79, 1-phenethylcarbonyl-5′-aminomethyl-spiro[piperidine-4,3′-(2H)-benzo[b]furan]] to NCc1ccc2c(c1)C1(CCN(C(=O)c3ccc(Cc4ccccc4)cc3)CC1)CO2 [Cpd 75, 1-(4-benzyl-phenyl)carbonyl-5′-aminomethyl-spiro[piperidine-4,3′-(2H)-benzo[b]furan]], the IC50 falls from 1.4 µM to 0.47 µM (3-fold).

NCc1ccc2c(c1)C1(CCN(C(=O)Cc3cccc(Oc4ccccc4)c3)CC1)CO2 [Cpd 88, 1-(3-phenoxy-benzyl)carbonyl-5′-aminomethyl-spiro[piperidine-4,3′-(2H)-benzo[b]furan]] and NCc1ccc2c(c1)C1(CCN(C(=O)/C=C/c3cccc(OCc4ccccc4)c3)CC1)CO2 [Cpd 281, (E)-1-(3-benzyloxy-phenylethenyl)carbonyl-5′-aminomethyl-spiro[piperidine-4,3′-(2H)-benzo[b]furan]] are within 1.5-fold of each other in IC50: 0.026 µM for the first, 0.024 µM for the second.

Compared with COCCCOc1cccc(/C=C/C(=O)N2CCC3(CC2)COc2ccc(CN)cc23)c1 [Cpd 301, (E)-1-[3-(3-methoxy-propoxy)-phenylethenyl]carbonyl-5′-aminomethyl-spiro[piperidine-4,3′-(2H)-benzo[b]furan]], NCc1ccc2c(c1)C1(CCN(C(=O)/C=C/c3cccc(O)c3)CC1)CO2 [Cpd 265, (E)-1-(3-hydroxy-phenylethenyl)carbonyl-5′-aminomethyl-spiro[piperidine-4,3′-(2H)-benzo[b]furan]] is 1.7-fold lower in IC50: 1.5 µM for the first, 0.87 µM for the second.

Going from NCc1ccc2c(c1)C1(CCN(C(=O)c3ccc(C4CCCCC4)cc3)CC1)CO2 [Cpd 73, 1-(4-cyclohexyl-phenyl)carbonyl-5′-aminomethyl-spiro[piperidine-4,3′-(2H)-benzo[b]furan]] to CC(=O)c1ccc(C(=O)N2CCC3(CC2)COc2ccc(CN)cc23)cc1 [Cpd 67, 1-(4-methylcarbonyl-phenyl)carbonyl-5′-aminomethyl-spiro[piperidine-4,3′-(2H)-benzo[b]furan]], the IC50 rises from 2.5 µM to 4.8 µM (1.9-fold).

Compared with Cc1c(C#N)sc2sc(C(=O)N3CCC4(CC3)COc3ccc(CN)cc34)c(C)c12 [Cpd 226, 1-(3,4-dimethyl-5-cyano-thieno[2,3-b]thien-2-yl)carbonyl-5′-aminomethyl-spiro[piperidine-4,3′-(2H)-benzo[b]furan]], CS(=O)(=O)c1ccc(C(=O)N2CCC3(CC2)COc2ccc(CN)cc23)s1 [Cpd 169, 1-(5-methylsulfonyl-thien-2-yl)carbonyl-5′-aminomethyl-spiro[piperidine-4,3′-(2H)-benzo[b]furan]] is 2-fold lower in IC50: 3.2 µM for the first, 1.6 µM for the second.

First: CN(C)c1cccc(C(=O)N2CCC3(CC2)COc2ccc(CN)cc23)c1 [Cpd 56, 1-(3-dimethylamino-phenyl)carbonyl-5′-aminomethyl-spiro[piperidine-4,3′-(2H)-benzo[b]furan]]
Second: NCc1ccc2c(c1)C1(CCN(C(=O)c3ccc(F)c(Br)c3)CC1)CO2 [Cpd 31, 1-(3-bromo-4-fluoro-phenyl)carbonyl-5′-aminomethyl-spiro[piperidine-4,3′-(2H)-benzo[b]furan]]
The IC50 of the first is 3.5-fold higher: 0.19 µM for the first, 0.055 µM for the second.

Going from NCc1ccc2c(c1)C1(CCN(C(=O)c3ccc(Cl)c(Cl)c3)CC1)CS2(=O)=O [Cpd 352, 1-(3,4-dichlorophenyl)carbonyl-5′-aminomethyl-spiro[piperidine-4,3′-(1,1-dioxo-(2H)-benzo[b]thiophene)]] to NCc1ccc2c(c1)C1(CCN(C(=O)c3ccc(F)c(F)c3)CC1)CO2 [Cpd 26, 1-(3,4-difluoro-phenyl)carbonyl-5′-aminomethyl-spiro[piperidine-4,3′-(2H)-benzo[b]furan]], the IC50 falls from 5.3 µM to 0.23 µM (23-fold).

Compared with CC(C)(C)c1ccc(/C=C/C(=O)N2CCC3(CC2)COc2ccc(CN)cc23)cc1 [Cpd 268, (E)-1-(4-tert-butyl-phenylethenyl)carbonyl-5′-aminomethyl-spiro[piperidine-4,3′-(2H)-benzo[b]furan]], NCc1ccc2c(c1)C1(CCN(C(=O)/C=C/c3ccc(F)c(F)c3)CC1)CO2 [Cpd 111, (E)-1-(3,4-difluoro-phenylethenyl)carbonyl-5′-aminomethyl-spiro[piperidine-4,3′-(2H)-benzo[b]furan]] is 15-fold lower in IC50: 2.9 µM for the first, 0.19 µM for the second.

Compared with NCc1ccc2c(c1)C1(CCN(C(=O)C3CCCCC3)CC1)CO2 [Cpd 37, 1-cyclohexylcarbonyl-5′-aminomethyl-spiro[piperidine-4,3′-(2H)-benzo[b]furan]], NCc1ccc2c(c1)C1(CCN(C(=O)c3cc4c(s3)CCCCC4)CC1)CO2 [Cpd 257, 1-(5,6,7,8-tetrahydro-4H-cyclohepta[b]thien-2-yl)carbonyl-5′-aminomethyl-spiro[piperidine-4,3′-(2H)-benzo[b]furan]] is 1.7-fold lower in IC50: 0.73 µM for the first, 0.44 µM for the second.

NCc1ccc2c(c1)C1(CCN(C(=O)/C=C/c3cccc(OCCc4ccccc4)c3)CC1)CO2 [Cpd 294, (E)-1-(3-phenethoxy-phenylethenyl)carbonyl-5′-aminomethyl-spiro[piperidine-4,3′-(2H)-benzo[b]furan]] and NCc1ccc2c(c1)C1(CCN(C(=O)c3ccc(CSCc4ccccc4)o3)CC1)CO2 [Cpd 147, 1-[5-(benzylthiomethyl)-furan-2-yl]carbonyl-5′-aminomethyl-spiro[piperidine-4,3′-(2H)-benzo[b]furan]] are within 1.5-fold of each other in IC50: 0.097 µM for the first, 0.066 µM for the second.

First: Cc1nn(-c2ccc(C(=O)N3CCC4(CC3)COc3ccc(CN)cc34)o2)c(C)c1Br [Cpd 150, 1-[5-(3,5-dimethyl-4-bromo-pyrazol-1-yl)-furan-2-yl]carbonyl-5′-aminomethyl-spiro[piperidine-4,3′-(2H)-benzo[b]furan]]
Second: COc1ccc(-c2ccc(C(=O)N3CCC4(CC3)COc3ccc(CN)cc34)o2)cc1 [Cpd 132, 1-[5-(4-methoxy-phenyl)-furan-2-yl]carbonyl-5′-aminomethyl-spiro[piperidine-4,3′-(2H)-benzo[b]furan]]
The IC50 of the first is 6.9-fold higher: 0.18 µM for the first, 0.026 µM for the second.

NCc1ccc2c(c1)C1(CCN(C(=O)c3ccc(COc4ccccc4Br)o3)CC1)CO2 [Cpd 213, 1-[5-(2-bromo-phenoxymethyl)-furan-2-yl]carbonyl-5′-aminomethyl-spiro[piperidine-4,3′-(2H)-benzo[b]furan]] and COc1ccc(CC(=O)N2CCC3(CC2)COc2ccc(CN)cc23)cc1 [Cpd 94, 1-(4-methoxy-benzyl)carbonyl-5′-aminomethyl-spiro[piperidine-4,3′-(2H)-benzo[b]furan]] are the same in IC50: 0.24 µM for the first, 0.24 µM for the second.

First: NCc1ccc2c(c1)C1(CCN(C(=O)c3ccc(C=O)s3)CC1)CO2 [Cpd 245, 1-(5-formyl-thien-2-yl)carbonyl-5′-aminomethyl-spiro[piperidine-4,3′-(2H)-benzo[b]furan]]
Second: NCc1ccc2c(c1)C1(CCN(C(=O)C#Cc3ccc(O)cc3)CC1)CO2 [Cpd 264, 1-(4-hydroxy-phenylethynyl)carbonyl-5′-aminomethyl-spiro[piperidine-4,3′-(2H)-benzo[b]furan]]
The IC50 of the first is 6.3-fold lower: 0.51 µM for the first, 3.2 µM for the second. The first is the more potent here.

NCc1ccc2c(c1)C1(CCN(C(=O)Cc3ccc4c(c3)OCO4)CC1)CO2 [Cpd 100, 1-benzodioxol-5-ylmethylcarbonyl-5′-aminomethyl-spiro[piperidine-4,3′-(2H)-benzo[b]furan]] and COc1ccc(CC(=O)N2CCC3(CC2)COc2ccc(CN)cc23)cc1C [Cpd 102, 1-(3-methyl-4-methoxy-benzyl)carbonyl-5′-aminomethyl-spiro[piperidine-4,3′-(2H)-benzo[b]furan]] are within 1.5-fold of each other in IC50: 0.68 µM for the first, 0.6 µM for the second.

Compared with NCc1ccc2c(c1)C1(CCN(C(=O)c3scc4c3CCCC4)CC1)CO2 [Cpd 203, 1-(5,6,7-trihydro-4H-benzo[c]thien-1-yl)carbonyl-5′-aminomethyl-spiro[piperidine-4,3′-(2H)-benzo[b]furan]], NCc1ccc2c(c1)C1(CCN(C(=O)c3cc(-c4ccccc4)c(C(F)(F)F)s3)CC1)CO2 [Cpd 295, 1-(4-phenyl-5-trifluoromethyl-thien-2-yl)carbonyl-5′-aminomethyl-spiro[piperidine-4,3′-(2H)-benzo[b]furan]] is 6.7-fold lower in IC50: 0.28 µM for the first, 0.042 µM for the second.

Compared with O=C(NCc1ccc2c(c1)C1(CCNCC1)CO2)c1ccc(Cl)c(Cl)c1 [Cpd 2, 5′-(3,4-dichlorophenylcarbonylaminomethyl)-spiro[piperidine-4,3′-(2H)-benzo[b]furan]], COC(=O)CCN1CC2(CCN(C(=O)c3ccc(C#Cc4ccccc4)o3)CC2)c2cc(CN)ccc21 [Cpd 321, 1-(5-phenylethynyl-furan-2-yl)carbonyl-1′-(2-methoxycarbonyl-ethyl)-5′-aminomethyl-spiro[piperidine-4,3′-(2H)-indole]] is 8.8-fold lower in IC50: 1.4 µM for the first, 0.16 µM for the second. The second is the more potent here.
